Entries after “also recorded” stand apart in the source; their conditions may differ. Read-outs that look alike come from different tables or passages of the source.
What was measured:
P. falciparum Dd2 MDR = assay: Morphology of synchronized Dd2 parasitized red cells; format: cell-based; details: 300 nM; 36 hours of incubation; vs controls
Method: (§1) P. falciparum Dd2 MDR parasited red cells were synchronized to the ring stage by sorbitol lysis and incubated the cells in the presence or absence of 300 nM T3.5. […] P. yoelii infected mice treated with T3.5 harbor PRBCs that lack hemozoin. Taken together these observations are consistent with the notion that T3.5 blocks hemozoin formation in infected cells.

[1] = system: CQ-sensitive D6 strain of P. falciparum; assay: In vitro antimalarial activity, SYBR Green MSF assay, D6; format: cell-based; details: Plasmodium falciparum, D6
Source text: (§2) This example describes the screening of disclosed antimalarial acridones against the CQ-sensitive D6 strain and the MDR Dd2 strain of P. falciparum for in vitro antimalarial activity.

[2] = system: murine splenic lymphocytes (MSLCs); assay: Cytotoxicity by Alamar Blue assay; details: for IC50: cytotoxicity
[3] = target: T1, recombinant human norepinephrine transporter (hNET) (Homo sapiens, UniProt P23975); assay: [125I]RTI-55 binding, HEK-hNET
T1 construct: expressed in transfected cells

MDR P. falciparum Dd2 = assay: Fixed-ratio combination (isobologram) with quinoline antimalarials, Dd2; format: cell-based
Method: In one embodiment, synergism is assessed herein using fixed-ratio combinations that provide information over a wide range of drug concentrations. […] If these stock solutions were termed Drug A and Drug B, then six final stock solutions were prepared from this initial stock: Drug A alone, Drug B alone, and volume:volume mixtures of Drug A and B in the following ratios: 4:1, 3:2, 2:3, and 1:4. Two-fold dilutions of each of the six final stock solutions were done robotically across a 96-well plate in quadruplicate. Subsequent steps were typical of standard drug-susceptibility methods. […] The data pointed from all six curves were then analyzed using Calcusyn software (commercially available from BioSoft, Cambridge, UK) for determination of synergy. Output from this analysis included FIC values used to plot isobolograms as well as a rigorously determined synergy index, termed the combination index (CI) (Calcusyn). FIC50 isobolograms, CI's and tabulation of IC90 component drug concentrations were reported.
The combinations of the acridones T3.5 and T2 with quinine were assessed for synergism.
FIG. 6 is an isobologram charting the efficacy of quinine in combination with T3.5 in vitro against CQ-sensitive (D6) and MDR (Dd2) P. falciparum.

[4] = system: QN-sensitive P. yoelii (K); assay: In vivo synergism T3.5 and quinine, 6-day Thompson test in mice; details: alone or fixed-ratio combination (dose of each)
Method: In vivo synergism was assessed using the 6-day Thompson test in mice infected with QN-sensitive P. yoelii (K), comparing the efficacy of T3.5 alone, QN alone and T3.5:QN combinations (Table 7). Dosages were established using a rigorous fixed-ratio combination dosing protocol and results were assessed using Calcusyn software to determine synergy. As in the case of the in vitro combination, there was evident in vivo synergism.

[5] = system: MDR Dd2 strain of P. falciparum; assay: In vitro antimalarial activity, SYBR Green MSF assay, Dd2; format: cell-based; details: Plasmodium falciparum, DD2
Source text: as §2
As shown in Table 3 and Table 4, selected soluble acridone derivatives were screened for antimalarial activity against the CQ-sensitive D6 and the MDR Dd2 strains of P. falciparum.

[6] = target: T2, recombinant human serotonin transporter (hSERT) (Homo sapiens, UniProt P31645); assay: [125I]RTI-55 binding, HEK-hSERT
T2 construct: expressed in transfected cells

[7] = Metabolic stability and fate in hepatic S9 fraction with NADPH; format: in vitro ADME, murine; details: 50 μM, NADPH 1 mM, 10, 30 and 60 min
Method: This example investigates the metabolic stability and fate of T3.5 in the presence of NADPH and a murine hepatic S9 fraction. Hepatic S-9 fractions were incubated with 50 μM T3.5 in the presence of NADPH (1 mM) for 10, 30 and 60 min. HPLC was conducted with a Hypersil Gold column that is stable at high pH. […] The full scan mass spectrum had the isotopic ratio expected for the chlorine substituted acridone ring. […] The two unresolved peaks most likely represent de-ethylation of the tertiary amine on each side chain.
A second de-ethylation also occurred with the prolonged incubation as evidenced by the peak at 17.5 min when monitored at m/z 388.1 (loss of m/z=56). Another dealkylated metabolite was monitored at m/z 345.1 and corresponds to the loss of the triethylamine side chain (loss of m/z=99) from the acridone ring. The dealkylation could occur from either the aryl ether side chain or from the acridone ring nitrogen. The later would result in the production of the active compound T2. […] In addition to the dealkylated products, a hydroxylated metabolite was also detected by monitoring at m/z 460.2 (addition of m/z=16). The hydroxylation could occur on the acridone ring or on one of the primary carbons on the ethylamine side chains. Further MS/MS experiments will help establish the site of hydroxylation.

P. yoelii = assay: Hemozoin in PRBCs of treated infected mice; format: in vivo
Method: as §1

[8] = In vitro heme aggregation assay; details: 25 mM phosphate buffer, pH 4.8, 30 minutes at room temperature
Method: This example describes the in vitro inhibition of heme aggregation by xanthone 2,3,4,5,6-pentahydroxyxanthone. Conditions: 25 mM Phosphate buffer, pH 5.2, 1 hour incubation at 37° C. Further details of this assay are described by Ignatushchenko et al. in Xanthones as antimalarial agents; studies of a possible mode of action.
This example describes visual evidence that acridones disclosed herein form soluble complexes with heme under mildly acidic conditions. […] Employing the same assay conditions, heme was mixed with T2 or T3.5 under mildly acidic conditions (25 mM phosphate buffer, pH 4.8) and monitored. […] Without being limited to theory, it is believed that for some compounds inhibition of heme aggregation in vitro can be correlated with inhibition of hemozoin formation in vivo.

[9] = Heme-binding affinity (spectrophotometric titration); details: Table 4
Source text: With continued reference to FIG. 1, panel B illustrates the spectrophotometric titration curve of the heme:3,6-bis-ε-(N,N-diethylamino)-amyloxy xanthone (C5) complex. The apparent binding constant was derived from the best fit (solid line) of a 1:1 (heme dimer:C5) association model. […] Panels A and B show the fluorescence localization of C5 and LysoTracker Red, respectively.

[10] = target: T3, recombinant human dopamine transporter (hDAT) (Homo sapiens, UniProt Q01959); assay: [125I]RTI-55 binding, HEK-hDAT
T3 construct: expressed in transfected cells

P. yoelii (K) = assay: Curative efficacy vs patent infection, three once-daily doses (adapted 6-day Thompson test); details: ig, three once-daily doses

T3 sequence (Q01959 whole entry): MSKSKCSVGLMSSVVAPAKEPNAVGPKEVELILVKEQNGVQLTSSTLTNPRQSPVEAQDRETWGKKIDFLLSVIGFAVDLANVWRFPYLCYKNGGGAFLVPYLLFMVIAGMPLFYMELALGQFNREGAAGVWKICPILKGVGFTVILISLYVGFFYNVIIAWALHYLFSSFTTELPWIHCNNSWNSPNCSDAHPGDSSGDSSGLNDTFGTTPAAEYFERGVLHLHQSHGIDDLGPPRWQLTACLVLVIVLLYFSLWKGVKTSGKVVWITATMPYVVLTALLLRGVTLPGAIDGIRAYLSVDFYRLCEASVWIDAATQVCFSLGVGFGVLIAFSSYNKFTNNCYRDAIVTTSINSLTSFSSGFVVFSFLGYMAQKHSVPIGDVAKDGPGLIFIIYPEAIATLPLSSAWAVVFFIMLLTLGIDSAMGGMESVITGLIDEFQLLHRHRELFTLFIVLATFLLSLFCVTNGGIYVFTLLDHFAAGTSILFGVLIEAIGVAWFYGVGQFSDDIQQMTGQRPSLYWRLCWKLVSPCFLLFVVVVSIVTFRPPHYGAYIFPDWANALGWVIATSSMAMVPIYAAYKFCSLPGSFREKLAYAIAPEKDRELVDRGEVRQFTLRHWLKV
T1 sequence (P23975 whole entry): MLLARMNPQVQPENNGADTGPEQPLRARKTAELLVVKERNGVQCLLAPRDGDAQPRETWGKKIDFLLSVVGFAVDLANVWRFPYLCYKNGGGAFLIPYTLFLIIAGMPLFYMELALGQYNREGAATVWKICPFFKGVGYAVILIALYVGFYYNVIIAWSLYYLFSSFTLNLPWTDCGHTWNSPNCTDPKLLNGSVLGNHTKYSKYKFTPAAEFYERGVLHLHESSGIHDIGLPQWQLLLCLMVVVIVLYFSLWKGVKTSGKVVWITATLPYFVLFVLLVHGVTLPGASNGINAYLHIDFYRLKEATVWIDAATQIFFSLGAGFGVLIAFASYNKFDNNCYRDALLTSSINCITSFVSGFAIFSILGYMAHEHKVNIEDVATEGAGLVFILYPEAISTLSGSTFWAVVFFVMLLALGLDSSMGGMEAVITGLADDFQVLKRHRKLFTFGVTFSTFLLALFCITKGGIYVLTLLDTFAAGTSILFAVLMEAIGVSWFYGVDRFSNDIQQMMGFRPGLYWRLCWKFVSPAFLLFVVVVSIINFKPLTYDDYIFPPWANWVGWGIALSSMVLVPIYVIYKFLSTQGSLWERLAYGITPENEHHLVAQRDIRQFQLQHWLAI
T2 sequence (P31645 whole entry): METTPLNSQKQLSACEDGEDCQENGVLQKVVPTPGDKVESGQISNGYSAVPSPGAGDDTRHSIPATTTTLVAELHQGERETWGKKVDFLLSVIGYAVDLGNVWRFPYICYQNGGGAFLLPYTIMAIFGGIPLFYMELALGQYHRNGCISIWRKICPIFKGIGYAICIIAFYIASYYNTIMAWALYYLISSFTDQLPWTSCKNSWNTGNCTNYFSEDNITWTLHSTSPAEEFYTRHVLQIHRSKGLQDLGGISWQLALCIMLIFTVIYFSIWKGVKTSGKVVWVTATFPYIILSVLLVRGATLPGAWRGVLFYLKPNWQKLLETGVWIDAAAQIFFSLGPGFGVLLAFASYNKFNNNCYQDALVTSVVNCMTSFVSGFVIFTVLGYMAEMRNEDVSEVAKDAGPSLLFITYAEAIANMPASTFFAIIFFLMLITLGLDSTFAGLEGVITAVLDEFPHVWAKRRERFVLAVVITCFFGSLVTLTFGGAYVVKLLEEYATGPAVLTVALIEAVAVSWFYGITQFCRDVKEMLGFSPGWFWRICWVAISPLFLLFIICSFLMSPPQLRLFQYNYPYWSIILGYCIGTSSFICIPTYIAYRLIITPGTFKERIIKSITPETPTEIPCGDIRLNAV

- IC50 ([1]; Table 2, average of 4 independent experiments, read-out: IC50, D6): 0.05 µM
- IC50 ([1]; Table 4, read-out: IC50 P. falciparum D6): 0.044 µM
- Ki [3]: > 10 µM
- IC50 ([5]; Table 2, average of 4 independent experiments, read-out: IC50, Dd2): 0.058 µM
- IC50 ([5]; Table 4, read-out: IC50 P. falciparum Dd2): 0.077 µM
- Ki [6]: 2.29 µM
- most abundant metabolites [7]: de-ethylated products
- Heme-binding Ka [9]: 7.1 10^4 M^−1
- Ki [10]: > 10 µM
Compound: CCN(CC)CCOc1ccc2c(=O)c3ccc(Cl)cc3n(CCN(CC)CC)c2c1 [T3.5, 3-(2-diethylaminoethoxy)-6-chloro-10-(2-diethylaminoethyl)-9-acridone]
- visible hemozoin (P. falciparum Dd2 MDR): markedly diminished
- cytotoxicity at the highest tested concentration ([2]; 25 μM): no evidence of cytotoxicity
- IVTI ([2]; ratio of cytotoxicity IC50 (vs. MSLCs) to antimalarial IC50 against D6): >500
- IC50 ([2]; read-out: IC50, MSLCs, Table 2): > 25 µM
- IC50 ([2]; read-out: IC50 MSLCs, Table 4): > 25 µM
- interaction with CQ (MDR P. falciparum Dd2; isobolar analysis): synergistic
- interaction with amodiaquine (MDR P. falciparum Dd2; isobolar analysis): synergistic
- interaction with mefloquine (MDR P. falciparum Dd2; isobolar analysis): not
- interaction with quinine (MDR P. falciparum Dd2; isobolar analysis): synergism; also recorded: synergistic
- T3.5 concentration giving 90% growth inhibition in combination (MDR P. falciparum Dd2; with 7-70 nM quinine): 20 to 200 nM
- ED50 dose [4]: 56 mg/kg/day
- ED75 dose [4]: 70 mg/kg/day
- ED90 dose [4]: 88 mg/kg/day
- hemozoin in PRBCs (P. yoelii): lack hemozoin
- formation of heme aggregates [8]: prevent the formation of heme aggregates
- ED50 and ED90, gavage (ig) dosing, in words (P. yoelii (K)): comparable
